Test results from US6720346B2, “Thiazole benzamide derivatives and pharmaceutical compositions for inhibiting cell proliferation” (Agouron Pharmaceuticals, Inc., priority 2001, dated 2004).
pIC50, pKi: −log10 of the molar value.

Key:
CDK2/cyclin A = molecular target: T1, CDK2/cyclin A (Homo sapiens, UniProt P24941); test: Inhibition of CDK2/cyclin A retinoblastoma kinase activity (Ki; % inhibition); format: biochemical; conditions: for pKi: apparent Ki, CDK2/cyclin A, Rb substrate
T1 construct: made in house; host or cells: CDK2: insect cells (baculovirus); cyclin A: E. coli
How it was run: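 Apparent Ki values came from fitting concentration-dependent activity data to competitive (or competitive tight-binding) models, and % inhibition from single 30 nM screens of library compounds. Activity was measured as ³²P/³³P incorporation from 25 μM ATP into an Rb substrate by 10 or 19 nM CDK2/delta cyclin A at 30 °C over 60–75 min, pH 7.4.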

human CDK4/cyclin D3 = molecular target: T2, human CDK4/cyclin D3 (Homo sapiens, UniProt P11802); test: Inhibition of CDK4/cyclin D retinoblastoma kinase activity (Ki; % inhibition); format: biochemical; conditions: for pKi: apparent Ki, CDK4/cyclin D3, Rb substrate
T2 construct: made in house; host or cells: insect cells co-infected with baculovirus vectors
T2 sequence (P11802 whole entry): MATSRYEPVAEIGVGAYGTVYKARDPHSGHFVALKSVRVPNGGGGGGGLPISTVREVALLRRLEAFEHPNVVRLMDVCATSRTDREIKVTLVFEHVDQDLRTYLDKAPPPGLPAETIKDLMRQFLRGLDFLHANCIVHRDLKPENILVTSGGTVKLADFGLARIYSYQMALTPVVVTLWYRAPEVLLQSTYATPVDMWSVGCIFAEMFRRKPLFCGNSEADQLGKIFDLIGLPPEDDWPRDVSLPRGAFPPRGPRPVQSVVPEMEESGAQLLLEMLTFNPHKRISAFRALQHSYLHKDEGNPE
T2 sequence (P30281 1-264 partner limits assumed): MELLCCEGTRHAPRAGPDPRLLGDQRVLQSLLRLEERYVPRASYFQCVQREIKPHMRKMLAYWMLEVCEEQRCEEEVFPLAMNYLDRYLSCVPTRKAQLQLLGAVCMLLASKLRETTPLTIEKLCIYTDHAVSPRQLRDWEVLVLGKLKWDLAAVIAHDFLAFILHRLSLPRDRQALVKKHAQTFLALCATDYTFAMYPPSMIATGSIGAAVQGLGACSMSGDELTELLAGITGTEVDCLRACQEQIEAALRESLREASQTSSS
How it was run: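 Radiometric filter-binding read-out: Rb residues 386-928 phosphorylated by 5 nM CDK4/cyclin D3(1-264) from baculovirus-infected insect cells, 25 μM ATP, HEPES pH 7.4, 30 °C. Run 20 min, or 60 min for tight-binding inhibitors. Screening at 30 nM theoretical compound; apparent Ki by competitive-inhibition fitting.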

HCT-116 cell line = test: Inhibition of cell growth, MTT tetrazolium salt assay; format: cell-based; conditions: for pIC50: Homo sapiens, HCT-116, 120 h, MTT, three to five days
How it was run: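 Cells in McCoy's 5A medium were given 4 h before compound addition in 0.5% (v/v) DMSO, then incubated 3–5 days at 37 °C, 5% CO2. After 4 h with 0.2 mg/mL MTT, DMSO-solubilized formazan was read at 540 nm; 50% and 90% growth-inhibitory concentrations came from semi-log plots against vehicle controls.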

[1] = HCT-116 cells, 0.25 μM compound

SMILES	CDK2 % Inhibition at 0.03 μM (CDK2/cyclin A; at 0.03 μM) [%]	CDK4 % Inhibition at 0.03 μM (human CDK4/cyclin D3; at 0.03 μM) [%]	CDK2 % Inhibition at 0.03 μM (CDK2/cyclin A; 0.03 μM compound) [%]	CDK4 % Inhibition at 0.03 μM (human CDK4/cyclin D3; 0.03 μM compound) [%]	HCT-116 % Inhibition at 0.25 μM (HCT-116 cell line; HCT-116, at 0.25 μM) [%]	HCT-116 % Inhibition at 0.1 μM (HCT-116 cell line; HCT-116 cells, 0.1 μM compound) [%]	HCT-116 % Inhibition at 0.25 μM (HCT-116 cell line; [1]) [%]	also measured
CN(C)CCCNC(=O)c1ccc(Nc2nc(N)c(C(=O)c3c(F)cccc3F)s2)cc1 [Example G119]	11	31			64			HCT-116 % Inhibition at 0.1 μM (HCT-116 cell line; HCT-116, at 0.1 μM): 0%
CN(C)CCNC(=O)c1cccc(Nc2nc(N)c(C(=O)c3c(F)cccc3F)s2)c1 [F]								pKi (CDK2/cyclin A): 6.57; pKi (human CDK4/cyclin D3): 6.85; pIC50 (HCT-116 cell line): 5.74
Nc1nc(Nc2ccc(C(=O)Nc3cccc4ncccc34)cc2)sc1C(=O)c1c(F)cccc1F [Example G67]	25	12			82			
Nc1nc(Nc2ccc(C(=O)N3CCc4ccccc4C3)cc2)sc1C(=O)c1c(F)cccc1F [Example G79]	2	10			51			
Cc1cc(NC(=O)c2ccc(Nc3nc(N)c(C(=O)c4c(F)cccc4F)s3)cc2)ccc1Cl [Example G38]	3	7			65			
Nc1nc(Nc2ccc(C(=O)NCCCN3CCCC3)cc2)sc1C(=O)c1c(F)cccc1F [Example G158]	22	40			73			HCT-116 % Inhibition at 0.1 μM (HCT-116 cell line; HCT-116, at 0.1 μM): 0%
Nc1nc(Nc2ccc(C(=O)N3CCN(c4ccccn4)CC3)cc2)sc1C(=O)c1c(F)cccc1F [Example C201]			6	26		17	43	
C[C@@H]1CN(CCNC(=O)c2ccc(Nc3nc(N)c(C(=O)c4c(F)cccc4F)s3)cc2)C[C@H](C)N1 [Example A57]								pKi (CDK2/cyclin A): 7.27; pKi (human CDK4/cyclin D3): 8.00; pIC50 (HCT-116 cell line): 5.42
Nc1nc(Nc2ccc(C(=O)Nc3ccc(-c4csnn4)cc3)cc2)sc1C(=O)c1c(F)cccc1F [Example G30]	5	5			82			
Nc1nc(Nc2ccc(C(=O)NCCOc3ccccc3)cc2)sc1C(=O)c1c(F)cccc1F [Example G113]	51	43			80			HCT-116 % Inhibition at 0.1 μM (HCT-116 cell line; HCT-116, at 0.1 μM): 26%
CNC(=O)c1ccccc1NC(=O)c1ccc(Nc2nc(N)c(C(=O)c3c(F)cccc3F)s2)cc1 [Example G161]	13	7			57			HCT-116 % Inhibition at 0.1 μM (HCT-116 cell line; HCT-116, at 0.1 μM): 0%
NC(=O)c1cccc(NC(=O)c2ccc(Nc3nc(N)c(C(=O)c4c(F)cccc4F)s3)cc2)c1 [Example G6]	−1	10			47			
Nc1nc(Nc2ccc(C(=O)N3CCC(O)CC3)cc2)sc1C(=O)c1c(F)cccc1F [Example G56]	24	10			59			

The next lines start with results.

CDK2 % Inhibition at 0.03 μM (CDK2/cyclin A; at 0.03 μM) [%]	CDK4 % Inhibition at 0.03 μM (human CDK4/cyclin D3; at 0.03 μM) [%]	CDK2 % Inhibition at 0.03 μM (CDK2/cyclin A; 0.03 μM compound) [%]	CDK4 % Inhibition at 0.03 μM (human CDK4/cyclin D3; 0.03 μM compound) [%]	SMILES	HCT-116 % Inhibition at 0.25 μM (HCT-116 cell line; HCT-116, at 0.25 μM) [%]	HCT-116 % Inhibition at 0.1 μM (HCT-116 cell line; HCT-116 cells, 0.1 μM compound) [%]	HCT-116 % Inhibition at 0.25 μM (HCT-116 cell line; [1]) [%]	also measured
		17	23	CC(C)CCNC(=O)c1ccc(Nc2nc(N)c(C(=O)c3c(F)cccc3F)s2)cc1 [Example G247]		12	54	
		−2	6	COc1ccc(CNC(=O)c2ccc(Nc3nc(N)c(C(=O)c4c(F)cccc4F)s3)cc2)cc1OC [Example G345]		22	36	
		11	11	Nc1nc(Nc2ccc(C(=O)NC3CCC(O)CC3)cc2)sc1C(=O)c1c(F)cccc1F (stereo not drawn) [Example G346]		15	52	
		14	19	C=C(C)CNC(=O)c1ccc(Nc2nc(N)c(C(=O)c3c(F)cccc3F)s2)cc1 [Example G223]		14	50	
		16	26	Cc1ccc(CNC(=O)c2ccc(Nc3nc(N)c(C(=O)c4c(F)cccc4F)s3)cc2)cc1 [Example G253]		19	62	
		−7	10	CC(=O)N[C@@H]1CCN(C(=O)c2ccc(Nc3nc(N)c(C(=O)c4c(F)cccc4F)s3)cc2)C1 [Example G373]		31	48	
		−30	−12	Cc1ccc(NC(=O)c2ccc(Nc3nc(N)c(C(=O)c4c(F)cccc4F)s3)cc2)c(F)c1 [Example G284]		4	69	
		17	14	COc1cccc(CNC(=O)c2ccc(Nc3nc(N)c(C(=O)c4c(F)cccc4F)s3)cc2)c1OC [Example G332]		21	66	
		−7	9	Cc1cccc(NC(=O)c2ccc(Nc3nc(N)c(C(=O)c4c(F)cccc4F)s3)cc2)c1 [Example G280]		7	70	
		−9	30	CCN(CC)CCN(C)C(=O)c1ccc(Nc2nc(N)c(C(=O)c3c(F)cccc3F)s2)cc1 [Example G298]		0	46	
		2	24	CC(C)(CO)CNC(=O)c1ccc(Nc2nc(N)c(C(=O)c3c(F)cccc3F)s2)cc1 [Example G263]		26	54	
		−24	1	Nc1nc(Nc2ccc(C(=O)N3CCCCC3CCO)cc2)sc1C(=O)c1c(F)cccc1F (stereo not drawn) [Example G265]		21	48	
14	15			C[C@H](NC(=O)c1ccc(Nc2nc(N)c(C(=O)c3c(F)cccc3F)s2)cc1)C(N)=O [Example G191]	51			HCT-116 % Inhibition at 0.1 μM (HCT-116 cell line; HCT-116, at 0.1 μM): 3%
		22	29	COc1ccc(CCNC(=O)c2ccc(Nc3nc(N)c(C(=O)c4c(F)cccc4F)s3)cc2)cc1OC [Example G241]		28	57	
		32	35	COc1cccc(CNC(=O)c2ccc(Nc3nc(N)c(C(=O)c4c(F)cccc4F)s3)cc2)c1 [Example G246]		20	62	
		26	17	CC(C)(C)c1ccc(CNC(=O)c2ccc(Nc3nc(N)c(C(=O)c4c(F)cccc4F)s3)cc2)cc1 [Example G270]		15	45	
